Experimental data as given in the NIST ThermoML archive (doi:10.1016/j.jct.2017.11.003).
± gives the expanded uncertainty stated by the source.

Test: xn = mol fraction of the nth substance listed
Conditions: 100 kPa, Liquid; for speed of sound: Frequency=2 MHz, Linear variable-path acoustic interferometer; for mass density: Vibrating tube method

Cc1ccccc1Cl [2-chlorotoluene] + CCCCCCCCCO
Conditions	mass density, 293.15 K [kg/m3]	mass density, 298.15 K [kg/m3]	mass density, 303.15 K [kg/m3]	mass density, 308.15 K [kg/m3]	speed of sound, 293.15 K [m/s]	speed of sound, 298.15 K [m/s]	speed of sound, 303.15 K [m/s]	speed of sound, 308.15 K [m/s]
x1 = 0.0846	843 ± 4	840 ± 4	836 ± 4	832 ± 4	1375.9 ± 4	1360.1 ± 4	1348.7 ± 4	1325.2 ± 4
x1 = 0.1974	864 ± 4	861 ± 4	857 ± 4	853 ± 4	1367.7 ± 4	1351.5 ± 4	1339.2 ± 4	1315.5 ± 4
x1 = 0.2911	883 ± 4	880 ± 4	876 ± 4	872 ± 4	1359.7 ± 4	1342.9 ± 4	1329.6 ± 4	1305.8 ± 4
x1 = 0.3964	906 ± 4	902 ± 4	898 ± 4	894 ± 4	1349.9 ± 4	1331.9 ± 4	1318.6 ± 4	1294 ± 4
x1 = 0.4896	928 ± 4	924 ± 4	920 ± 4	915 ± 4	1341.3 ± 4	1322.3 ± 4	1308.2 ± 4	1284 ± 4
x1 = 0.5943	954 ± 4	950 ± 4	946 ± 4	941 ± 4	1331.5 ± 4	1312.2 ± 4	1298 ± 4	1273.4 ± 4
x1 = 0.6918	981 ± 4	976 ± 4	972 ± 4	967 ± 4	1324 ± 4	1304.4 ± 4	1290 ± 4	1265.8 ± 4
x1 = 0.7948	1011 ± 4	1007 ± 4	1002 ± 4	997 ± 4	1318 ± 4	1298.5 ± 4	1284 ± 4	1260.8 ± 4
x1 = 0.898	1045 ± 4	1040 ± 4	1036 ± 4	1031 ± 4	1315.2 ± 4	1297 ± 4	1280.7 ± 4	1259.9 ± 4
x1 = 1	1082 ± 4	1077 ± 4	1073 ± 4	1068 ± 4	1317 ± 4	1299.7 ± 4	1283.9 ± 4	1265.8 ± 4

Cc1cccc(Cl)c1 [3-chlorotoluene] + CCCCCCCCCO
Conditions	mass density, 293.15 K [kg/m3]	mass density, 298.15 K [kg/m3]	mass density, 303.15 K [kg/m3]	mass density, 308.15 K [kg/m3]	speed of sound, 293.15 K [m/s]	speed of sound, 298.15 K [m/s]	speed of sound, 303.15 K [m/s]	speed of sound, 308.15 K [m/s]
x1 = 0.0967	844 ± 4	841 ± 4	838 ± 4	834 ± 4	1374.3 ± 4	1357.5 ± 4	1345.4 ± 4	1320.9 ± 4
x1 = 0.1893	861 ± 4	858 ± 4	854 ± 4	850 ± 4	1366.3 ± 4	1348.2 ± 4	1335.6 ± 4	1310.1 ± 4
x1 = 0.2985	883 ± 4	879 ± 4	875 ± 4	871 ± 4	1355.3 ± 4	1336.2 ± 4	1323 ± 4	1297.4 ± 4
x1 = 0.3926	902 ± 4	898 ± 4	894 ± 4	890 ± 4	1345 ± 4	1325.6 ± 4	1310.9 ± 4	1286 ± 4
x1 = 0.4834	923 ± 4	919 ± 4	914 ± 4	910 ± 4	1335.2 ± 4	1315.2 ± 4	1300 ± 4	1275.7 ± 4
x1 = 0.5953	950 ± 4	945 ± 4	941 ± 4	937 ± 4	1323.7 ± 4	1303.7 ± 4	1288.3 ± 4	1264.9 ± 4
x1 = 0.6918	975 ± 4	970 ± 4	966 ± 4	961 ± 4	1315.7 ± 4	1296 ± 4	1280.3 ± 4	1257.6 ± 4
x1 = 0.7946	1004 ± 4	1000 ± 4	995 ± 4	990 ± 4	1310.2 ± 4	1291.2 ± 4	1274.7 ± 4	1254 ± 4
x1 = 0.8963	1036 ± 4	1031 ± 4	1027 ± 4	1022 ± 4	1308.7 ± 4	1290.7 ± 4	1273.6 ± 4	1253.9 ± 4
x1 = 1	1072 ± 4	1067 ± 4	1063 ± 4	1058 ± 4	1313.8 ± 4	1296.5 ± 4	1279.5 ± 4	1261.2 ± 4

Cc1ccc(Cl)cc1 [4-chlorotoluene] + CCCCCCCCCO
Conditions	mass density, 293.15 K [kg/m3]	mass density, 298.15 K [kg/m3]	mass density, 303.15 K [kg/m3]	mass density, 308.15 K [kg/m3]	speed of sound, 293.15 K [m/s]	speed of sound, 298.15 K [m/s]	speed of sound, 303.15 K [m/s]	speed of sound, 308.15 K [m/s]
x1 = 0.0835	842 ± 4	839 ± 4	835 ± 4	832 ± 4	1376.5 ± 4	1358.3 ± 4	1346.4 ± 4	1322.8 ± 4
x1 = 0.1905	862 ± 4	858 ± 4	855 ± 4	851 ± 4	1369.2 ± 4	1347.9 ± 4	1334.9 ± 4	1311.7 ± 4
x1 = 0.2888	881 ± 4	877 ± 4	873 ± 4	869 ± 4	1360.5 ± 4	1337.3 ± 4	1323.5 ± 4	1300.5 ± 4
x1 = 0.3983	904 ± 4	900 ± 4	896 ± 4	891 ± 4	1350 ± 4	1324.8 ± 4	1310.6 ± 4	1287.6 ± 4
x1 = 0.4948	925 ± 4	921 ± 4	917 ± 4	912 ± 4	1340.2 ± 4	1313.6 ± 4	1298.7 ± 4	1276.4 ± 4
x1 = 0.594	949 ± 4	945 ± 4	940 ± 4	935 ± 4	1330 ± 4	1303 ± 4	1287.9 ± 4	1266 ± 4
x1 = 0.6925	974 ± 4	970 ± 4	965 ± 4	960 ± 4	1321 ± 4	1294.2 ± 4	1278.5 ± 4	1257.4 ± 4
x1 = 0.7952	1003 ± 4	999 ± 4	994 ± 4	988 ± 4	1313 ± 4	1287.5 ± 4	1271.4 ± 4	1250.9 ± 3.9
x1 = 0.899	1035 ± 4	1031 ± 4	1025 ± 4	1020 ± 4	1308 ± 4	1284.9 ± 4	1267.7 ± 4	1248.9 ± 3.9
x1 = 1	1069 ± 4	1065 ± 4	1060 ± 4	1054 ± 4	1306.4 ± 4	1288.2 ± 4	1270 ± 3.9	1252.1 ± 3.9

CCCCCCCCCO [nonan-1-ol] + ClCCCl
Conditions	mass density, 293.15 K [kg/m3]	mass density, 298.15 K [kg/m3]	mass density, 303.15 K [kg/m3]	mass density, 308.15 K [kg/m3]	speed of sound, 293.15 K [m/s]	speed of sound, 298.15 K [m/s]	speed of sound, 303.15 K [m/s]	speed of sound, 308.15 K [m/s]
x2 = 0	828 ± 4	824 ± 4	821 ± 4	818 ± 4	1380.5 ± 4	1364.7 ± 4	1348.1 ± 4	1330.5 ± 4
x2 = 0.0922	845 ± 4	841 ± 4	838 ± 4	834 ± 4	1357.5 ± 4	1341.4 ± 4	1329.7 ± 4	1305.2 ± 4
x2 = 0.2067	869 ± 4	866 ± 4	862 ± 4	858 ± 4	1332.2 ± 4	1315.5 ± 4	1301.2 ± 4	1277.5 ± 4
x2 = 0.2984	892 ± 4	888 ± 4	884 ± 4	880 ± 4	1313.7 ± 4	1296.8 ± 4	1280.6 ± 4	1257.8 ± 4
x2 = 0.406	922 ± 4	918 ± 4	914 ± 4	909 ± 4	1293.1 ± 4	1275.5 ± 4	1258 ± 4	1235 ± 3.9
x2 = 0.4896	950 ± 4	946 ± 4	941 ± 4	936 ± 4	1277.3 ± 4	1260.3 ± 3.9	1242.2 ± 3.9	1219 ± 3.9
x2 = 0.6039	994 ± 4	989 ± 4	984 ± 4	979 ± 4	1258.2 ± 3.9	1240.6 ± 3.9	1221.4 ± 3.9	1199 ± 3.9
x2 = 0.6928	1035 ± 4	1030 ± 4	1025 ± 4	1019 ± 4	1243.5 ± 3.9	1226.4 ± 3.9	1206.5 ± 3.9	1184.8 ± 3.9
x2 = 0.8087	1101 ± 4	1095 ± 4	1089 ± 4	1083 ± 4	1227.5 ± 3.9	1210.5 ± 3.9	1190 ± 3.9	1169 ± 3.9
x2 = 0.9063	1170 ± 4	1163 ± 4	1157 ± 4	1150 ± 4	1216.7 ± 3.9	1199 ± 3.9	1179.2 ± 3.9	1159.9 ± 3.9
